Experiment: particle size (dv10) of darunavir after drying
Assay type: physicochemical
Conditions: 10% (volume %) of particles smaller than value
Description: The active ingredient darunavir ethanolate used in the marketed 300 mg tablet formulation has been manufactured by a process which includes a drying process in which the particulate darunavir is dried on trays, i.e. a static process. However, in order to provide a higher manufacturing throughput and improved safety for the operators, it is desirable to replace the static drying with a tumble drying operation involving drying in a revolving container. Such a change in the drying operation however has a significant effect on the physical characteristics of the particles of the darunavir. In this case the tumble drying of the particles results in a reduction in the dv10 value (dv10 means that 10% (volume %) of the particles has a diameter smaller than the specified value) from approximately 80 microns to approximately 35 microns. […] It will be appreciated that good blend flow and good tablet properties such as weight uniformity and appropriate visual appearance, without any defects, are essential in a large-scale industrial manufacturing process to maximise throughput and ensure consistent and efficient processing of the material.

CC(C)CN(C[C@@H](O)[C@H](Cc1ccccc1)NC(=O)O[C@H]1CO[C@H]2OCC[C@H]21)S(=O)(=O)c1ccc(N)cc1 [darunavir, [(1S,2R)-3-[[(4-aminophenyl)sulfonyl](2-methylpropyl)amino]-2-hydroxy-1-(phenylmethyl)propyl]-carbamic acid (3R,3aS,6aR)hexahydrofuro[2,3-b]furan-3-yl ester]
dv10 value (after tumble drying): approximately 35 microns | dv10 value (static drying on trays): approximately 80 microns

From patent US20100189783A1, “RELATING TO ANTI-HIV TABLET FORMULATIONS” (priority 2007, published 2010)
